Source: patent publication US20180369186A1, “METHOD FOR MODULATING AUTOPHAGY AND APPLICATIONS THEREOF” (JAWAHARLAL NEHRU CENTRE FOR ADVANCED SCIENTIFIC RESEARCH, priority 2015, published 2018)

Key:
[1] = test system: LC3B-II; assay: LC3 processing assay in HeLa cells; type: cell-based, human
Description: For EGFP-α-synuclein degradation assay, equal numbers of sub-confluent SH-SY5Y cells are seeded in 6 well dishes and allowed to attach for 24 h. Cells are transfected with EGFP-α-synuclein plasmid using Lipofectamine 2000 (Life technologies) and allowed to express for 24 h.
After treatments, cells are collected in Laemmli buffer to perform LC3 processing assay, P70S6K, GSK3β and 4E-BP1 immunoblotting. To validate EGFP-α-synuclein degradation by 6-Bio, treated cells are scraped and collected in growth medium. After washing with phosphate buffer, pellets are lysed in Laemmli buffer and boiled for 10 min.
Samples are electrophoresed on SDS-PAGE (8-15%) and then transferred onto PVDF (Bio-Rad) membrane using Transblot turbo (Bio-Rad). Transferred blots are stained with Ponceau S, probed with appropriate primary antibodies overnight and subsequently horseradish peroxidase conjugated secondary antibody. Signals are developed using enhanced chemiluminescence substrate (Clarity, Bio-Rad), imaged using a gel documentation system (G-Box, Syngene) and bands are quantified using image software (NIH). (FIGS. 4F and 5A)

[2] = Rotarod test in MPTP mice; type: in vivo; details: 5 mg/kg
Description: All the behavioural experiments are done on 3-4 month old, male C57/B16 mice. Experimenters are blind to the drug injected animals. Experimenters handle mice used for behavioral experiments for 3 consecutive days prior to the training paradigm. Behavioral experiments are designed in an order of low to high stress activity for mice. Therefore, Open Field Test is conducted in forenoon while rotarod is performed in the afternoon.
Mice were habituated to the behaviour room for 15 minutes every day before start of experiments. The light intensity is maintained at 100 lux throughout the experiment. Mice are weighed every day before training or test to ensure their good health. Mice are randomly allocated into three treatment cohorts: placebo control, MPTP and 6-Bio. Data is plotted using GraphPad prism 5 software.
The rotarod instrument is custom made at the Mechanical workshop, National Centre of Biological Sciences, Bengaluru, India. The rotating rod (diameter 3.3 cm) is made of Delrin and is textured to enhance the grip of mice. The rod is fixed at a height of 30 cm from the cushioned platform where mice fell on to during training and test. The rod is partitioned into three areas of 9.3 cm distance between each partition using discs (40 cm diameter) made of Teflon. […] The entire trial is video recorded using a DSLR camera (Nikon D5100) and latencies are scored manually. […]

[3] = test system: autophagy (degradation of firefly luciferase); assay: Dual luciferase assay to monitor autophagy in real time; type: cell-based, S. cerevisiae; details: 1 μM, 10 μM, 25 μM and 50 μM
Text: The S. cerevisiae shuttle vectors pRS306 (URA) and pRS305 (LEU) are used to clone the POT1 promoter and the Firefly and Renilla luciferase genes, respectively. The oleate responsive region of the POT1 promoter is amplified from yeast genomic DNA and along with the firefly and Renilla luciferase genes (firefly gene from pMY30 and Renilla gene from pRL-TK) is cloned into these vectors to obtain the constructs pPM3 and pPM5. These plasmid constructs are linearized using suitable restriction enzymes in the selection marker and transformed into wild type strains of S. cerevisiae and P. pastoris by standard transformation methods-Lithium acetate or PEG based transformation. […]
To validate the luciferase assay developed in the laboratory, it is compared to the conventional Pot1-GFP processing assay, Both pexophagy and general autophagy are measured by following the rates of degradation of firefly and Renilla activities (FIG. 1A).
Thus, a 3 standard deviation (SD) parameter is used as a criterion to obtain the hits from the primary screen. […] Both the inhibitors show a dose dependent inhibition in autophagy as determined using luciferase assay wherein inhibition by concentrations 1 μM, 10 μM, 25 μM and 50 μM of the inhibitors are assessed and inhibition is observed to increase as concentration increases from 1 μM to 50 μM. […]

[4] = test system: p62, MAP1LC3B-II; assay: p62 and MAP1LC3B immunoblotting in Atg5+/+ and Atg5−/− MEFs; type: cell-based, mouse; details: 5 μM, 24 h
Description: Western blotting is performed using standard methods. Immunoblotting in MEFs is carried out as described previously. Dilutions of primary antibodies used are as follows: Anti-p62 1:1000 (Progen Biotechnik, GP62-C), Anti-MAP1LC3B 1:3000 (Nevus Biologicals, NB100-2220) and Anti-GAPDH (Cell Signalling Technologies, 2118S). Secondary antibodies conjugated to HRP are used at 1:10000 dilution as follows: Anti-Guinea-Pig-HRP (Abeam, ab50210) and Anti-Rabbit-HRP (Calbiochem, 401393).

[5] = test system: HeLa and SH-SY5Y cells; assay: Cell viability of HeLa and SH-SY5Y after 72 h (CellTitre Glo); type: cell-based, human; details: various concentrations
Description: In another embodiment of the present disclosure, FIG. 47 illustration non-toxicity of XCT 790 to cells (Hela and SHSY5Y) and scheme for α-synculein toxicity assay. Cell viability of cell lines like HeLa (a) and SH-SY5Y (b) after 72 h of XCT 790 treatments for various indicated concentrations. Cell viability was assayed using CellTitre Glo (Promega) kit.

O=C1Nc2cc(Br)ccc2/C1=C1/Nc2ccccc2/C1=N\O [6-Bio, (2′Z,3′E)-6-Bromoindirubin-3′-oxime]
LC3-II levels ([1]; 2 h): increases LC3-II | LC3B-II accumulated in presence of E64D and Pepstatin A ([1]; with lysosomal protease inhibitors, vs 6-Bio only): significantly more | latency to fall, Co versus MPTP ([2]; MPTP+Co, day 13): increased | latency to fall, Post versus MPTP ([2]; administered after 48 h MPTP): not protected

Cc1ccc(S(=O)(=O)/C=C/C#N)cc1 [Bay11, 3-[(4-methylphenyl)sulfonyl]-(2E)-propenenitrile]
effect on rates of degradation of firefly luciferase (inhibition of autophagy) [3]: dose dependent effect | MAP1LC3B-II levels in Atg5+/+ MEFs [4]: reduces MAP1LC3B-II levels | endogenous p62 levels in Atg5+/+ MEFs [4]: significantly increases endogenous p62 levels | endogenous p62 levels in Atg5−/− MEFs [4]: no significant effect

COc1cc(C=C(C#N)C(=O)Nc2nnc(C(F)(F)F)s2)ccc1OCc1ccc(C(F)(F)F)cc1C(F)(F)F [XCT 790, 3-[4-(2,4-Bis-trifluoromethylbenzyloxy)-3-methoxyphenyl]-2-cyano-N-(5-trifluoromethyl-1,3,4-thiadiazol-2-yl)acrylamide]
toxicity to cells [5]: non-toxicity
